Test: Hepatotoxicity monitored by serum alanine aminotransferase (ALT) level in a clinical study of zileuton
Format: in vivo, human
Text: In another preferred embodiment, the trait considered was a side effect upon drug treatment; the study involved two populations derived from a clinical study of the anti-asthmatic drug zileuton. The case population was composed of asthmatic individuals treated with Zileuton showing zileuton-associated hepatotoxicity monitored by the serum level of alanine aminotransferase (ALT) and the control population was composed of asthmatic individuals treated with zileuton and having no increased serum level of ALT. Inclusion criteria and association between the biallelic markers of the present invention and zileuton-associated hepatotoxicity are further described below in IV.E. Association of Biallelic Markers of the Invention with Hepatoxicity to Anti-Asthma Drug Zileuton and in Example 5, Association between Side Effects upon Treatment with the Anti-Asthmatic Drug Zileuton (Zyflo™) and the Biallelic Markers of the 12-lipoxygenase Gene.
Zileuton (Zyflo™) is an active inhibitor of 5-lipoxygenase, the enzyme that catalyzes the formation of leukotrienes from arachidonic acid, indicated for prophylaxis and chronic treatment of asthma. […] The ALT test (serum level of alanine aminotransferase) was used, which is considered the most sensitive indicator of liver injury.
The side effect examined in this study was the hepatotoxicity experienced by asthmatic individuals as a result of their treatment with Zileuton as part of a clinical study. […] Hepatotoxicity was monitored by measuring the serum levels of alanine aminotransferase (ALT), which is a sensitive indicator of liver cell damage.
As mentioned above, an association study is more informative if the case-control populations present extreme phenotypes. Therefore, the asthmatic individuals, which were selected for the side effect positive trait (ALT+), corresponded to 89 individuals that presented at least 3 times the upper limit of normal (ULN) level of ALT. On the other side, the asthmatic individuals that were selected for the side effect negative trait (ALT−) corresponded to 208 individuals that presented less than 1×ULN of ALT. ALT+ and ALT− populations corresponded to 4% and 35% respectively of the total asthmatic individuals that participated in this study.

Structure (SMILES): CC(c1cc2ccccc2s1)N(O)C(N)=O (stereo not shown) [Zileuton]
- asthmatic individuals that did not experience Zileuton-associated ALT increase compared to ALT levels prior to zileuton intake (asthmatic individuals treated with zileuton in a clinical study, serum ALT): More than 90%
- ALT+ population (at least 3 times the upper limit of normal level of ALT) as share of total asthmatic individuals in the study (asthmatic individuals treated with zileuton, 89 individuals): 4%
- ALT- population (less than 1xULN of ALT) as share of total asthmatic individuals in the study (asthmatic individuals treated with zileuton, 208 individuals): 35%
- liver function abnormalities in zileuton-treated patients (elevations of liver function tests during treatment, ALT test): A minority of zileuton-treated patients develop liver function abnormalities
